Key:
[1] = Freeze-thaw stability in spiked pooled human plasma; assay type: physicochemical
[2] = Autosampler stability of ready for injection samples; assay type: physicochemical, human
[3] = set-up: method as in supplement references [1-55] as printed per drug; conditions: minimum steady-state blood plasma concentration after multiple dose administration; ref supplement references [1-55] per drug; cited from earlier work
[4] = Long-term stability in spiked pooled human plasma
[5] = Short-term stability in spiked pooled human plasma (bench-top, 4 °C, 56 °C)

COC(=O)c1ccc2c(c1)NC(=O)/C2=C(\Nc1ccc(N(C)C(=O)CN2CCN(C)CC2)cc1)c1ccccc1 [Nintedanib]
Freeze-Thaw Accuracy [%] ([1]; validation standard 2xLLOV): 103.0%
Freeze-Thaw Accuracy [%] ([1]; validation standard LLOV): 93.2%
Freeze-Thaw Accuracy [%] ([1]; validation standard MOV): 96.9%
Freeze-Thaw Accuracy [%] ([1]; validation standard ULOV): 95.8%
Autosampler (24h, 4°C) Accuracy [%] ([2]; validation standard 2xLLOV): 104.2%
Autosampler (72h, 4°C) Accuracy [%] ([2]; validation standard 2xLLOV): 104.4%
Autosampler (24h, 4°C) Accuracy [%] ([2]; validation standard LLOV): 91.3%
Autosampler (72h, 4°C) Accuracy [%] ([2]; validation standard LLOV): 99.8%
Autosampler (24h, 4°C) Accuracy [%] ([2]; validation standard MOV): 102.7%
Autosampler (72h, 4°C) Accuracy [%] ([2]; validation standard MOV): 104.6%
Autosampler (24h, 4°C) Accuracy [%] ([2]; validation standard ULOV): 102.7%
Autosampler (72h, 4°C) Accuracy [%] ([2]; validation standard ULOV): 101.4%
cmin [3]: 13.1 ng/mL
Long-term stability, 1 month, -20°C Accuracy [%] ([4]; validation standard 2xLLOV): 97.2%
Long-term stability, 1 month, -80°C Accuracy [%] ([4]; validation standard 2xLLOV): 98.9%
Long-term stability, 2 month, -20°C Accuracy [%] ([4]; validation standard 2xLLOV): 103.8%
Long-term stability, 2 month, -80°C Accuracy [%] ([4]; validation standard 2xLLOV): 99.7%
Long-term stability, 3 month, -20°C Accuracy [%] ([4]; validation standard 2xLLOV): 90.3%
Long-term stability, 3 month, -80°C Accuracy [%] ([4]; validation standard 2xLLOV): 91.1%
Long-term stability, 6 weeks, 4°C, without daylight Accuracy [%] ([4]; validation standard 2xLLOV): 94.4%
Long-term stability, 1 month, -20°C Accuracy [%] ([4]; validation standard LLOV): 102.0%
Long-term stability, 1 month, -80°C Accuracy [%] ([4]; validation standard LLOV): 102.1%
Long-term stability, 2 month, -20°C Accuracy [%] ([4]; validation standard LLOV): 96.9%
Long-term stability, 2 month, -80°C Accuracy [%] ([4]; validation standard LLOV): 94.3%
Long-term stability, 3 month, -20°C Accuracy [%] ([4]; validation standard LLOV): 88.2%
Long-term stability, 3 month, -80°C Accuracy [%] ([4]; validation standard LLOV): 88.3%
Long-term stability, 6 weeks, 4°C, without daylight Accuracy [%] ([4]; validation standard LLOV): 86.6%
Long-term stability, 1 month, -20°C Accuracy [%] ([4]; validation standard MOV): 95.5%
Long-term stability, 1 month, -80°C Accuracy [%] ([4]; validation standard MOV): 91.4%
Long-term stability, 2 month, -20°C Accuracy [%] ([4]; validation standard MOV): 98.9%
Long-term stability, 2 month, -80°C Accuracy [%] ([4]; validation standard MOV): 99.7%
Long-term stability, 3 month, -20°C Accuracy [%] ([4]; validation standard MOV): 97.2%
Long-term stability, 3 month, -80°C Accuracy [%] ([4]; validation standard MOV): 94.7%
Long-term stability, 6 weeks, 4°C, without daylight Accuracy [%] ([4]; validation standard MOV): 94.4%
Long-term stability, 1 month, -20°C Accuracy [%] ([4]; validation standard ULOV): 94.5%
Long-term stability, 1 month, -80°C Accuracy [%] ([4]; validation standard ULOV): 87.4%
Long-term stability, 2 month, -20°C Accuracy [%] ([4]; validation standard ULOV): 97.0%
Long-term stability, 2 month, -80°C Accuracy [%] ([4]; validation standard ULOV): 94.8%
Long-term stability, 3 month, -20°C Accuracy [%] ([4]; validation standard ULOV): 92.9%
Long-term stability, 3 month, -80°C Accuracy [%] ([4]; validation standard ULOV): 91.8%
Long-term stability, 6 weeks, 4°C, without daylight Accuracy [%] ([4]; validation standard ULOV): 85.9%
Short-time stability (1h, 56°C) Accuracy [%] ([5]; validation standard 2xLLOV): 48.8%
Short-time stability (24h, 4°C, without daylight) Accuracy [%] ([5]; validation standard 2xLLOV): 103.5%
Short-time stability (24h, RT, with daylight) Accuracy [%] ([5]; validation standard 2xLLOV): 102.5%
Short-time stability (24h, RT, without daylight) Accuracy [%] ([5]; validation standard 2xLLOV): 105.4%
Short-time stability (1h, 56°C) Accuracy [%] ([5]; validation standard LLOV): 56.0%
Short-time stability (24h, 4°C, without daylight) Accuracy [%] ([5]; validation standard LLOV): 96.7%
Short-time stability (24h, RT, with daylight) Accuracy [%] ([5]; validation standard LLOV): 99.4%
Short-time stability (24h, RT, without daylight) Accuracy [%] ([5]; validation standard LLOV): 96.1%
Short-time stability (1h, 56°C) Accuracy [%] ([5]; validation standard MOV): 51.2%
Short-time stability (24h, 4°C, without daylight) Accuracy [%] ([5]; validation standard MOV): 100.1%
Short-time stability (24h, RT, with daylight) Accuracy [%] ([5]; validation standard MOV): 104.3%
Short-time stability (24h, RT, without daylight) Accuracy [%] ([5]; validation standard MOV): 103.0%
Short-time stability (1h, 56°C) Accuracy [%] ([5]; validation standard ULOV): 43.9%
Short-time stability (24h, 4°C, without daylight) Accuracy [%] ([5]; validation standard ULOV): 88.8%
Short-time stability (24h, RT, with daylight) Accuracy [%] ([5]; validation standard ULOV): 105.8%
Short-time stability (24h, RT, without daylight) Accuracy [%] ([5]; validation standard ULOV): 102.1%

COc1cc2ncnc(Nc3ccc(F)c(Cl)c3)c2cc1NC(=O)/C=C/CN1CCCCC1 [Dacomitinib]
Freeze-Thaw Accuracy [%] ([1]; validation standard 2xLLOV): 92.5%
Freeze-Thaw Accuracy [%] ([1]; validation standard LLOV): 89.8%
Freeze-Thaw Accuracy [%] ([1]; validation standard MOV): 95.9%
Freeze-Thaw Accuracy [%] ([1]; validation standard ULOV): 96.3%
Autosampler (24h, 4°C) Accuracy [%] ([2]; validation standard 2xLLOV): 102.5%
Autosampler (72h, 4°C) Accuracy [%] ([2]; validation standard 2xLLOV): 99.5%
Autosampler (24h, 4°C) Accuracy [%] ([2]; validation standard LLOV): 93.3%
Autosampler (72h, 4°C) Accuracy [%] ([2]; validation standard LLOV): 92.3%
Autosampler (24h, 4°C) Accuracy [%] ([2]; validation standard MOV): 104.5%
Autosampler (72h, 4°C) Accuracy [%] ([2]; validation standard MOV): 100.5%
Autosampler (24h, 4°C) Accuracy [%] ([2]; validation standard ULOV): 98.4%
Autosampler (72h, 4°C) Accuracy [%] ([2]; validation standard ULOV): 98.0%
cmin [3]: 73.1 ng/mL
Long-term stability, 1 month, -20°C Accuracy [%] ([4]; validation standard 2xLLOV): 94.4%
Long-term stability, 1 month, -80°C Accuracy [%] ([4]; validation standard 2xLLOV): 91.2%
Long-term stability, 2 month, -20°C Accuracy [%] ([4]; validation standard 2xLLOV): 96.1%
Long-term stability, 2 month, -80°C Accuracy [%] ([4]; validation standard 2xLLOV): 107.1%
Long-term stability, 3 month, -20°C Accuracy [%] ([4]; validation standard 2xLLOV): 89.4%
Long-term stability, 3 month, -80°C Accuracy [%] ([4]; validation standard 2xLLOV): 94.7%
Long-term stability, 6 weeks, 4°C, without daylight Accuracy [%] ([4]; validation standard 2xLLOV): 62.3%
Long-term stability, 1 month, -20°C Accuracy [%] ([4]; validation standard LLOV): 86.5%
Long-term stability, 1 month, -80°C Accuracy [%] ([4]; validation standard LLOV): 87.2%
Long-term stability, 2 month, -20°C Accuracy [%] ([4]; validation standard LLOV): 96.8%
Long-term stability, 2 month, -80°C Accuracy [%] ([4]; validation standard LLOV): 105.1%
Long-term stability, 3 month, -20°C Accuracy [%] ([4]; validation standard LLOV): 83.4%
Long-term stability, 3 month, -80°C Accuracy [%] ([4]; validation standard LLOV): 96.1%
Long-term stability, 6 weeks, 4°C, without daylight Accuracy [%] ([4]; validation standard LLOV): 61.0%
Long-term stability, 1 month, -20°C Accuracy [%] ([4]; validation standard MOV): 91.7%
Long-term stability, 1 month, -80°C Accuracy [%] ([4]; validation standard MOV): 95.2%
Long-term stability, 2 month, -20°C Accuracy [%] ([4]; validation standard MOV): 95.1%
Long-term stability, 2 month, -80°C Accuracy [%] ([4]; validation standard MOV): 99.2%
Long-term stability, 3 month, -20°C Accuracy [%] ([4]; validation standard MOV): 90.9%
Long-term stability, 3 month, -80°C Accuracy [%] ([4]; validation standard MOV): 99.4%
Long-term stability, 6 weeks, 4°C, without daylight Accuracy [%] ([4]; validation standard MOV): 79.1%
Long-term stability, 1 month, -20°C Accuracy [%] ([4]; validation standard ULOV): 93.0%
Long-term stability, 1 month, -80°C Accuracy [%] ([4]; validation standard ULOV): 93.2%
Long-term stability, 2 month, -20°C Accuracy [%] ([4]; validation standard ULOV): 96.3%
Long-term stability, 2 month, -80°C Accuracy [%] ([4]; validation standard ULOV): 99.6%
Long-term stability, 3 month, -20°C Accuracy [%] ([4]; validation standard ULOV): 90.3%
Long-term stability, 3 month, -80°C Accuracy [%] ([4]; validation standard ULOV): 97.6%
Long-term stability, 6 weeks, 4°C, without daylight Accuracy [%] ([4]; validation standard ULOV): 77.8%
Short-time stability (1h, 56°C) Accuracy [%] ([5]; validation standard 2xLLOV): 30.6%
Short-time stability (24h, 4°C, without daylight) Accuracy [%] ([5]; validation standard 2xLLOV): 94.9%
Short-time stability (24h, RT, with daylight) Accuracy [%] ([5]; validation standard 2xLLOV): 86.7%
Short-time stability (24h, RT, without daylight) Accuracy [%] ([5]; validation standard 2xLLOV): 88.5%
Short-time stability (1h, 56°C) Accuracy [%] ([5]; validation standard LLOV): 10.3%
Short-time stability (24h, 4°C, without daylight) Accuracy [%] ([5]; validation standard LLOV): 90.8%
Short-time stability (24h, RT, with daylight) Accuracy [%] ([5]; validation standard LLOV): 74.6%
Short-time stability (24h, RT, without daylight) Accuracy [%] ([5]; validation standard LLOV): 72.7%
Short-time stability (1h, 56°C) Accuracy [%] ([5]; validation standard MOV): 37.3%
Short-time stability (24h, 4°C, without daylight) Accuracy [%] ([5]; validation standard MOV): 97.9%
Short-time stability (24h, RT, with daylight) Accuracy [%] ([5]; validation standard MOV): 89.8%
Short-time stability (24h, RT, without daylight) Accuracy [%] ([5]; validation standard MOV): 91.1%
Short-time stability (1h, 56°C) Accuracy [%] ([5]; validation standard ULOV): 33.3%
Short-time stability (24h, 4°C, without daylight) Accuracy [%] ([5]; validation standard ULOV): 92.4%
Short-time stability (24h, RT, with daylight) Accuracy [%] ([5]; validation standard ULOV): 85.6%
Short-time stability (24h, RT, without daylight) Accuracy [%] ([5]; validation standard ULOV): 89.1%

— publication PMC8699473, “An Easily Expandable Multi-Drug LC-MS Assay for the Simultaneous Quantification of 57 Oral Antitumor Drugs in Human Plasma” (Cancers, 2021)
